Legend:
pathogen-free rats [1] = assay: Agarose plug-induced goblet cell metaplasia in pathogen-free rats; format: in vivo, rat
Experimental: Protocol of experiments. We studied pathogen-free rats, because they normally have few goblet cells in airways. The animals were anesthetized with methohexital sodium (Brevital, 25 mg/kg, i.p.). The trachea was exposed aseptically with a midline cervical incision, and agarose plugs were instilled into a bronchus via a 20 gauge Angiocath (Becton Dikinson, Sandy, Utah) connected to polyethylene tubing (PE 90, internal diameter 0.86 mm and outer diameter 1.27 mm, Clay Adams, Parsippany, N.Y.) threaded into the incised trachea. The polyethylene tube was bent at a 30° angle to allow selective instillation into the right bronchus. After instillation, the incision was closed with a suture.
To evaluate the role of EGF-R on agarose plug-induced goblet cell metaplasia, animals were treated with BIBX1522 (80 mg/kg, i.p.) 1 h before instillation of the agarose plugs and repeated daily (40 mg/kg, i.p., bid). Animals were euthanized 24, 48 or 72 h after instillation of the agarose plugs.
The first treatment (100 μl in 0.2 ml saline, i.p.) was given 1 h before the instillation of agarose plugs, and i.p. injections were repeated daily.
To study the effect of neutrophils on agarose plug-induced goblet cell metaplasia, rats were pretreated with cyclophosphamide (an inhibitor of bone marrow leukocytes) or with a combination of cyclophosphamide plus NPC 15669. Cyclophosphnamide (100 mg/kg, i.p.) was given 5 d before instillation of agarose plugs, and a second injection of cyclophosphamide (50 mg/kg, i.p.) was given 1 d before instillation of plugs. In studies with NPC 15669, the drug (10 mg/kg, i.p.) was injected 1 h before instillation of agarose plugs, and then daily for 3 d thereafter.
Tissue preparation. At various times after agarose plug instillation, rats were anesthetized with sodium pentobarbital (65 mg/kg, i.p.), the systemic circulation was perfused with 1% paraformaldehyde in diethyl pyrocarbonate-treated PBS at a pressure of 120 mmHg. The right lung was removed, and the right caudal lobe was used for histology. For frozen sections, tissues were removed and placed in 4% paraformaldehyde for 1 h and then replaced in 30% sucrose for cryoprotection overnight. The tissues were embedded in O.C.T. compound (Sakura Finetek U.S.A., Inc., Torrance, Calif.). For methacrylate sections, the tissues were placed in 4% paraformaidehyde for 24 h and then dehydrated with graded concentrations of ethanol and embedded in methacrylate JB-4 (Polysciences, Inc., Warrington, Pa.). Tissue sections (4 μm thick) were stained with Alcian blue/PAS and counterstained with hematoxylin.
Morphoometric analysis of bronchial epithelium. The percentage of Alcian blue/PAS-stained area of mucous glycoconjugates in the epithelium was determined using a semi-automatic image analysis system according to previously published methods. The area of epithelium and Alcian blue/PAS-stained mucous conjugates within the epithelium was manually circumscribed and analyzed using the NIH Image program (developed at the U.S. National Institutes of health and available from the internet by ananymous FTP or from a floppy disk from the National Technical Information Service, Springfield, Va.; part number PB95-500195GEI). The data are expressed as the percentage of the total epithelial area occupied by Alcian blue/PAS stain. […] The percentage of denuded epithelium was determined by calculating the ratio of the length of denuded epithelium to the total epithelial length.
Identification of cell types in methacrylate sections and cell analysis. The total number of epithelial cells was determined by counting epithelial cell nuclei over 2 mm of the basal lamina with an oil immersion objective lens (×1000 magnification). The linear length of the basal lamina under each analyzed region of epithelium was determined by tracing the contour of the digitalized image of the basal lamina. The epithelia; cells were identified as described previously.

pathogen-free rats [2] = assay: IL-13-induced goblet cell metaplasia in rat airways; format: in vivo; details: pretreatment
Experimental: Animals were anesthetized with pentobarbital [Nembutal sodium, 50 mg/kg, intraperitoneally (ip), Abbott Laboratories, North Chicago, Ill.] and allowed to breathe spontaneously. Vehicle (phosphate buffer solution, PBS) or IL-13 was instilled intratracheally via a 20-gauge Angiocath catheter (Beckton Dickinson, Sandy, Utah) through the mouth, while the laryngeal area was visualized using a high-intensity illuminator (FiberLite; Dolan Jenner Industries, Inc., Lawrence, Mass.). The […] tissues were examined 48 hours after instillation of IL-13. Various concentrations of IL-13 (recombinant murine IL-13; 5, 50, 100, and 500 ng/rat, R&D systems, Minneapolis, Minn.) were instilled into the trachea in […]. Sterile PBS (200 μl) was instilled into the trachea as controls. For examination of the relationship between IL-13-induced GC metaplasia and activation of EGFR, animals were pretreated 1 d before instillation of IL-13 and daily thereafter with a selective EGFR tyrosine kinase inhibitor (BIBX 1522; 1-30 mg/kg/day, ip; Boehringer Ingelheim, Ingelheim, Germany). Animals were euthanized 48 hours after instillation of IL-13. In preliminary studies, we noted that IL-13 causes leukocyte recruitment into the airways. We hypothesized that leukocyte recruitment results from IL-13-induced chemoattractant release from epithelium, and that this recruitment is involved in the IL-13-induced EGFR cascade leading to GC metaplasia. Groups of animals were euthanized 4, 8, 16, 24, and 48 hours after instillation of IL-13 (500 ng), and leukocytes were counted in airway tissue. […] Sigma chemical Co., St Louis, Mo.] or with a blocking antibody to interleukin-8 (IL-BAb; rabbit anti-human IL-8 antibody; Biosource, Camarillo, Calif.). […] In another series of studies, we instilled IL-8 Ab (10 μg/rat) intratracheally, along with IL-13; we repeated the instillation of anti-human IL-8 blocking antibody at 12 hour intervals until the animals were euthanized. Animals were euthanized with a lethal dose of pentobarbital (Nembutal sodium, 200 mg/kg, ip, Abbott Laboratories, North Chicago, Ill.), and the systemic circulation was perfused with 1% paraformaldehyde in Diethylpyrocarbonate (DEPC, Sigma chemical Co., St Louis, Mo.)-treated PBS via the left ventricle. For frozen sections, […] tissues were removed, placed in 4% paraformaldehyde overnight, and then placed in 30% sucrose for cryoprotection. The tissues were embedded in optimal cutting temperature (OCT, […]., Inc., Torrance, Calif.) compound. For plastic or paraffin sections, tissues were placed in 4% paraformaldehyde overnight, dehydrated with ethanol, and embedded in JB-4 plus monomer solution A (Polysclences, Inc., Warrington, Pa.) or in paraffin. The embedded tissues were cut as cross sections 4 μm thick and placed on glass slides. In all studies, the carina was examined to obtain consistent sampling. We measured AB/PAS-positive areas and total epithelial area, and we expressed the results as the percentage of AB/PAS area to total epithelial area. The analysis was performed with the public domain NIH IMAGE program (developed at the U.S. National Institutes of Health and available by anonymous FTP from zippy.nimh.gov. or floppy disk from the National Technical Information Service, Springfield, Va., part number PB95-500195GEI). […] For immunohistochemical localization of […], we used mouse anti-human IL-8 antibody (1:20; Biosource, Camarillo, Calif.). The sections were then incubated with biotinylated horse anti-mouse IgG (Vector Laboratories, Burlingame, Calif.) at 1:200 dilution for 1 hour at room temperature. Bound antibody was visualized according to standard protocols for avidin-biotin-peroxidase complex method. The measurement of MUC5AC protein also utilized the same method used for quantitative measurement of GC metaplasia in the epithelium. Animals were euthanized 4, 8, 16, 24, and 48 hours after instillation of IL-13 (500 ng), and leukocytes were counted in airway tissue. […]

O=P1(N(CCCl)CCCl)NCCCO1 (stereo not shown) [cyclophosphamide]
neutrophil count in venous blood (pathogen-free rats [1]; after cyclophosphamide 100 mg/kg then 50 mg/kg i.p., n=5): 1.8±0.5%
agarose plug-induced EGF-R protein expression (pathogen-free rats [1]; rat, in vivo): inhibited
agarose plug-induced goblet cell metaplasia (Alcian blue/PAS-positively stained cells) (pathogen-free rats [1]; rat, in vivo): inhibited
macrophage recruitment after agarose plugs (pathogen-free rats [1]; rat, in vivo): did not inhibit
plug-induced neutrophil recruitment in BAL (pathogen-free rats [1]; rat, in vivo): inhibited
number of neutrophils in the airway lumen (pathogen-free rats [1]; treated rats with plugs, 24 h): 2.6±0.3 /mm of basal lamina
number of neutrophils in the epithelium (pathogen-free rats [1]; treated rats with plugs, 24 h): 0.8±0.2 /mm
IL-13-induced TNFα expression (pathogen-free rats [2]): prevented
IL-13-induced leukocyte recruitment into airways (pathogen-free rats [2]): inhibited
IL-13-induced mucin production (pathogen-free rats [2]): prevented
